According to patent publication US20110054033A1, “METHODS OF USING ABSCISIC ACID FOR AMELIORATING HYPERTENSION AND VASCULAR INFLAMMATION” (Virginia Tech Intellectual Properties, Inc., priority 2009, published 2011):

Columns and labels:
[1] = test system: E-selectin; assay: Aortic gene expression by real-time RT-PCR: E-selectin; format: in vivo, mice; settings: P=0.20
Description: (§1) FIG. 6 are graphs showing that ABA decreases immune cell infiltration in aortas of ApoE−/− mice and reduces pro-inflammatory gene expression. ApoE −/− mice were fed high fat diets created with or without 100 mg/kg diet racemic abscisic acid (ABA). (A) Infiltration of F4/80^+CD11b^+ macrophages and CD4^+ T-cells into the aorta were assessed with flow cytometry. Gene expression in the aorta of pro-inflammatory markers (B) vascular cell adhesion molecule 1 (VCAM-1), (C) monocyte chemoattractant protein 1 (MCP-1), (D) E-selectin, (F) peroxisome proliferator-activated receptor γ (PPAR γ), and (G) CD36 were measured as a ratio to the housekeeping gene β-actin. (H) MCP-1 protein concentrations (pg/mL) were measured by ELISA. Data were analyzed as a completely randomized design.
(§2) Total RNA was isolated from aortas using the RNA isolation Minikit (Qiagen) according to the manufacturer's instructions. […] Each gene amplicon was purified with the MiniElute PCR Purification Kit (Qiagen) and quantitated on an agarose gel by using a DNA mass ladder (Promega). […]
(§3) Complementary DNA (cDNA) concentrations for genes of interest were examined by real-time quantitative PCR using an iCycler IQ System and the iQ SYBR green supermix (Bio-Rad). […] Results are presented as a starting quantity of target cDNA (picograms) per microgram of total RNA. […]

[2] = test system: MCP-1; assay: MCP-1 concentrations in plasma by ELISA; format: in vivo, mice; settings: P=0.10
Description: as §1
A Ready-set-go MCP-1 ELISA (ebioscience) was used to quantify plasma MCP-1 according to the manufacturer's instructions.

[3] = test system: db/db mice; settings: Guri et al., cited from earlier work
[4] = test system: peroxisome proliferator-activated receptor γ (PPAR γ); assay: Aortic gene expression by real-time RT-PCR: PPAR γ and responsive genes; format: in vivo, mice; settings: day 84
Description: as §1, §2, §3

[5] = FPLC separation of plasma lipoproteins; format: in vivo; settings: ApoE-deficient mice, FIG. 2
Description: (§4) FIG. 2 is a graph showing fast performance liquid chromatography (FPLC) separation of plasma lipoproteins performed on a Superose 6 column using buffer containing 0.15M NaCl, 0.01M Na2HPO4 and 1 mM EDTA at a flow rate of 0.5 ml/min. Forty 0.5 ml fractions were collected and cholesterol was measured in fractions 10-40. Fractions 15-20 contain VLDL, fractions 21-27 contain LDL and fractions 28-34 contain HDL.
as §4, with “Plasma cholesterol and triglyceride levels were measured using kits from Raichem (San Diego, Calif.) adapted for microtiter plate assays. Plasma free fatty acids were measured using the NEFA-HR(2) kit from Wako. Fast” for “FIG. 2 is a graph showing fast”, “lipoproteins was” for “lipoproteins”

[6] = Body weight and fasted plasma metabolic parameters of ApoE-deficient mice fed high-fat diet with or without ABA; format: in vivo
Description: Five-week old ApoE −/− mice (n=40) were housed at the animal facilities at Virginia Polytechnic Institute and State University in a room maintained at 75° F., with a 12:12 h light-dark cycle starting from 6:00 AM. All experimental procedures were approved by the Institutional Animal Care and Use Committee of Virginia Polytechnic Institute and State University and met or exceeded requirements of the Public Health Service/National Institutes of Health and the Animal Welfare Act. Mice were fed a high saturated fat (AIN-93G-based) diet containing 19.6% fat and 0.2% total cholesterol and obtaining 40.1% of Kcal from fat (4.4 Kcal/g) with or without 100 mg/kg of a racemic ABA mixture (Guri et al., J. Nutr. Biochem. 19:216-28, 2008). Systolic blood pressure was assessed on days 0, 28, 56, and 72. On day 84, fasted mice (12 h) were sacrificed by carbon dioxide asphyxiation and blood was withdrawn through cardiac puncture. Glucose concentrations of whole blood were assessed with an Accu-Chek® Glucometer (Roche, Indianapolis, Ind.) and plasma insulin was measured through insulin ELISA (Millipore, Billerica, Mass.). Aortas were collected for analysis of immune cell infiltration, histological evaluation of atherosclerotic lesions, and gene expression analyses.
as §4, with “Plasma cholesterol and triglyceride levels were measured using kits from Raichem (San Diego, Calif.) adapted for microtiter plate assays. Plasma free fatty acids were measured using the NEFA-HR(2) kit from Wako. Fast” for “FIG. 2 is a graph showing fast”, “lipoproteins was” for “lipoproteins”

[7] = ApoE-deficient mice, high-fat diet, 84 days
[8] = fasted plasma, day 84, ABA 100 mg/kg diet, least square mean ± standard error
[9] = fasted plasma, day 84, ABA 100 mg/kg diet, least square mean ± standard error, * P<0.05 vs control

## CC1=CC(=O)CC(C)(C)C1(O)/C=C/C(C)=C\C(=O)O (racemic) [ABA, abscisic acid]
[1]
  E-selectin mRNA expression in the aortic roots vs control: reduced, though not to statistical significance
[2]
  Plasma MCP-1 concentrations vs control: decreased
[3]; db/db mice, 2007 and 2008
  Glucose tolerance: improved glucose tolerance
[3]; obese db/db mice, 2008
  Macrophage infiltration into white adipose tissue: significantly reduces macrophage infiltration
  Reduction in MCP-1 expression in the adipose tissue stromal-vascular fraction: approximately 15 fold
[4]
  Expression of PPAR γ or its responsive genes in the aorta vs control: no differences
[5]
  FPLC lipoprotein cholesterol profile vs control diet: slight shift in the profiles to lower VLDL and higher LDL and HDL
[6]; ApoE-deficient mice, high-fat diet with ABA 100 mg/kg, day 84, least square mean ± standard error
  Body Weight: 30.8 ± 0.63 g
[6]; [7]
  Effect on body weights vs control diet: no significant effect
  Effect on insulin vs control diet: no significant effect
  Effect on plasma glucose vs control diet: no significant effect
  Effect on plasma non-esterified fatty acid concentration vs control diet: significantly raise
  Effect on plasma triglyceride (TG) concentration vs control diet: significantly raise
  Effect on total cholesterol levels vs control diet: no significant effect
[6]; fasted (12 h), day 84, ABA 100 mg/kg diet, least square mean ± standard error
  Glucose: 194.6 ± 11.9 mg/dL
[6]; [8]
  Cholesterol: 339.0 ± 25.1 mg/dL
  Insulin: 0.432 ± 0.05 ng/mL
[6]; [9]
  NEFAs (non-esterified fatty acids): 2.05 ± 0.17* mequiv./mL
  TGs (triglycerides): 136.1 ± 12.3* mg/dL
[6]; fasted, day 84, ABA 100 mg/kg diet, least square mean ± standard error
  HOMA-IR (homeostasis model assessment-insulin resistance): 4.93 ± 0.76
